Source: patent publication US11401271B2, “Fused heterocyclic compound, pyrazole-ring-containing fused heterocyclic compound, agricultural composition containing thereof, and method of using the composition” (SOUTH CHINA AGRICULTURAL UNIVERSITY, priority 2017, dated 2022)
Read-outs that look alike come from different tables or passages of the source.

Tests used:
Type in all cases: in vivo
Solenopsis invicta = test: whole plant or invertebrate; details: Solenopsis invicta, water test tube poison-feeding
Method in brief: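 Mortality (%) of Solenopsis invicta, computed against live counts in control tubes, was recorded 24 h and 72 h after treatment at 25 °C. Compound was offered by oral feeding in test tubes at 100 ppm, diluted from a 10 g/L DMSO stock into water with 5% honey and 0.05% Tween-80.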

Apis cernan = test: Toxicity test on adult worker bees of Apis cernan, small beaker method; details: 500 ppm, 48 hours
Experimental: (2) Toxicity Test on Adult Worker Bees of Apis cernan.
Adult worker bees of Apis cernan having the same size were selected for test. The worker bees were collected from beekeeping boxes in the daystart of the test day and tested by using a small beaker method.
Operation process: A small amount of absorbent cotton was put into a 5 mL small beaker, 5 mL of a test liquid medicine (a concentration of 500 ppm) was dropped into the absorbent cotton, and stirred gently to make the absorbent cotton completely wet but not leached obviously, then the small beaker was put into a 500 mL large beaker, then 15 worker bees were put into the large beaker, and finally the large beaker was sealed with gauze. After treatment, the large beaker was placed in a dark room of an artificial climate box. After taking the medicine for 48 hours, a number of live and dead worker bees were investigated.

Spodoptera exigua = test: whole plant or invertebrate; details: Spodoptera exigua, read-out: Spodoptera exigua Mortality (%) 500 ppm
Method in brief: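 Leaf immersion feeding: second-instar larvae (about 35 per vessel, triplicate) kept at 28° C on discs treated with 500 ppm test solution in 0.05% Tween-80. Mortality at 24 h, calculated relative to surviving larvae in the solvent control.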

Aphis craccivora = test: whole plant or invertebrate; details: Aphis craccivora, read-out: Aphis craccivora Mortality (%) 500 ppm
Method in brief: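 Mortality scored 24 h after treatment as the reduction in live aphids versus a 0.05% Tween-80 control; three replicates, 23° C. Treatment was a 5 s immersion of wingless adults on bean sprouts in 500 ppm test solution containing 0.05% Tween-80, followed by air-drying.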

Bombyx mori L. = test: Toxicity test on 2nd-instar larvae of Bombyx mori L., leaf immersion feeding method; details: 1000 ppm, 24 hours
Experimental: (1) Toxicity Test on 2nd-Instar Larvae of Bombyx mori L.
Bombyx mori L. is an important economic insect sensitive to pesticides in an agricultural ecosystem, and is also one of the non-target organisms of environmental ecology listed in pesticide registration of China. The 2nd-instar larvae of Bombyx mori L. were used as test objects and tested by using a leaf immersion feeding method.
Operation process: Samples were weighed accurately, and respectively added with 200 μL of dimethyl sulfoxide to prepare 10 g/L mother liquor which was diluted into a concentration of 1000 ppm with an aqueous solution containing 0.05% of Tween-80 during the test. Young cotyledons of mulberries were collected, washed and air-dried, immersed in a liquid medicine, taken out after 5 seconds, naturally air-dryed, and then transferred into a clean vessel. About 35 2nd -instar larvae of Bombyx mori L. were put into the vessel and fed at a constant temperature of 25° C. Each concentration was repeated 3 times, and an aqueous solution containing 0.05% of Tween-80 was used as a control group. After being treated for 24 hours, a number of dead Bombyx mori L. was counted, and a mortality (%) was calculated according to a formula that mortality (%)=(number of live larvae in the control group −number of treated live larvae)/number of live larvae in the control group * 100%.

Plutella xylostella = test: whole plant or invertebrate; details: Plutella xylostella, read-out: Plutella xylostella Mortality (%) 500 ppm
Method in brief: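 Leaf immersion feeding test: 2nd-instar larvae (about 35 per vessel, 3 replicates) kept at 28° C. on 1.0 cm cabbage discs soaked 5 s in a 500 ppm solution with 0.05% Tween-80. Mortality after 24 h of exposure, calculated relative to live larvae in the Tween-80 control.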

[1] = 24 h, read-out: Solenopsis invicta Mortality (%) 100 ppm 24 h, 100 ppm, 24 h
[2] = 72 h, read-out: Solenopsis invicta Mortality (%) 100 ppm 72 h, 100 ppm, 72 h

Compound | mortality at 100 ppm (Solenopsis invicta; [1]) | mortality at 100 ppm (Solenopsis invicta; [2]) | Toxicity determination Apis cernan Mortality (%) (Apis cernan) | mortality at 500 ppm (Spodoptera exigua; 24 h) | mortality at 500 ppm (Aphis craccivora; 24 h) | Toxicity determination Bombyx mori L. Mortality (%) (Bombyx mori L.) | mortality at 500 ppm (Plutella xylostella) | mortality at 100 ppm (Solenopsis invicta; 24 h, 100 ppm, 24 h, read-out: Solenopsis invicta Mortality (%) 100 ppm 24 h) | mortality at 100 ppm (Solenopsis invicta; 72 h, 100 ppm, 72 h, read-out: Solenopsis invicta Mortality (%) 100 ppm 72 h) | mortality at 500 ppm (Spodoptera exigua; 500 ppm, 2nd-instar larvae, leaf immersion feeding, 24 hours) | mortality at 500 ppm (Aphis craccivora; 500 ppm, wingless adults, impregnation method, 24 hours) | mortality at 500 ppm (Plutella xylostella; 500 ppm, 2nd-instar larvae, leaf immersion feeding)
CNC(=O)N1c2c(C#N)c(SC)nn2-c2ccccc2C1(F)C(F)(F)F (centres unmarked) [Compound A32] | 26% | 93% | 4% | 90% | 100% | 10% | 100% |  |  |  |  | 
Nc1cc2n(n1)-c1cnccc1C(F)(CC(F)(F)F)N2 (centres unmarked) [Compound A36] | 44% | 100% | 0% | 100% | 100% | 3% | 100% |  |  |  |  | 
O=[N+]([O-])c1cc2n(n1)-c1cnccc1C(F)(CC(F)(F)F)N2 (centres unmarked) [Compound A43] | 20% | 100% | 8% | 100% | 100% | 3% | 100% |  |  |  |  | 
CCOC(=O)c1c(SC)nn2c1NC(C)(C)c1nc(F)ncc1-2 [Compound A44] | 26% | 93% | 8% | 90% | 100% | 8% | 100% |  |  |  |  | 
CSc1nn2c(c1S(=O)(=O)c1ccccc1)NC(C)(C)c1nc(F)ncc1-2 [Compound A45] | 24% | 100% | 11% | 100% | 100% | 10% | 100% |  |  |  |  | 
CC1(C)Nc2c(C#N)c(SCc3ccccc3)nn2-c2cnc(F)nc21 [Compound A46] | 20% | 87% | 2% | 100% | 100% | 7% | 86% |  |  |  |  | 
COc1ccc(-c2cn3c(c2C#N)NC(C#N)(C#N)c2ccc([N+](=O)[O-])cc2-3)cc1 [Compound B1, 2-(4-methoxybenzene)-8-nitropyrrole[1,2-α]quinazoline-3,5,5(4H)-tricyano] | 20% | 100% | 0% | 100% | 100% | 0% | 100% |  |  |  |  | 
COc1ccc(-c2cn3c(c2C#N)N(C)C(C#N)(C#N)c2ccc([N+](=O)[O-])cc2-3)cc1 [Compound B2] | 26% | 93% | 4% | 90% | 93% | 3% | 100% |  |  |  |  | 
COc1ccc(-c2cn3c(c2C(C)=O)NC(C#N)(C#N)c2ccc([N+](=O)[O-])cc2-3)cc1 [Compound B3] | 24% | 100% | 3% | 100% | 100% | 0% | 100% |  |  |  |  | 
COc1ccc(-c2cn3c(c2C(C)=O)NC(C(N)=O)(C(N)=O)c2ccc([N+](=O)[O-])cc2-3)cc1 [Compound B4] | 20% | 88% | 0% | 100% | 100% | 0% | 86% |  |  |  |  | 
N#Cc1cn2c(c1C#N)NC(C#N)(C#N)c1ccc([N+](=O)[O-])cc1-2 [Compound B6] | 44% | 100% | 5% | 100% | 100% | 4% | 90% |  |  |  |  | 
N#Cc1cn2c(c1C#N)NC(C#N)(C#N)c1ccc(N)cc1-2 [Compound B7] | 38% | 100% | 6% | 100% | 100% | 6% | 100% |  |  |  |  | 
C=CC(=O)Nc1ccc2c(c1)-n1cc(C#N)c(C#N)c1NC2(C#N)C#N [Compound B8] | 45% | 100% | 4% | 100% | 100% | 5% | 100% |  |  |  |  | 
N#Cc1cn2c(c1C#N)NC(C#N)(C#N)c1ccc(Br)cc1-2 [Compound B9] | 38% | 100% | 5% | 100% | 100% | 0% | 100% |  |  |  |  | 
CS(=O)(=O)Nc1ccc2c(c1)-n1cc(C#N)c(C#N)c1NC2(C#N)C#N [Compound B10] | 30% | 90% | 3% | 95% | 100% | 3% | 100% |  |  |  |  | 
COC(=O)Nc1ccc2c(c1)-n1cc(C#N)c(C#N)c1NC2(C#N)C#N [Compound B11] |  |  | 3% |  |  | 7% |  | 33% | 95% | 100% | 100% | 100%
CNC(=O)Nc1ccc2c(c1)-n1cc(C#N)c(C#N)c1NC2(C#N)C#N [Compound B12] | 40% | 100% | 6% | 100% | 100% | 5% | 100% |  |  |  |  | 
C=CC1(CCl)Nc2cc(C#N)nn2-c2c(Cl)cc(C(F)(F)F)cc21 (stereo not drawn) [Compound C1, 9-chloro-7-trifluoromethylphenyl-5-chloromethyl-5-vinyl-4,5-dihydropyrrole[1,5-α]quinazoline-2-cyano] | 20% | 100% | 7% | 100% | 100% | 7% | 89% |  |  |  |  | 
C=CC1(CC(F)(F)F)Nc2cc(C#N)nn2-c2c(Cl)cc(C(F)(F)F)cc21 (centres unmarked) [Compound C2] | 26% | 93% | 10% | 90% | 100% | 5% | 100% |  |  |  |  | 
C=CC1(C(F)(F)F)Nc2cc(C#N)nn2-c2c(Cl)cc(C(F)(F)F)cc21 (centres unmarked) [Compound C3] | 24% | 100% | 10% | 100% | 100% | 12% | 100% |  |  |  |  | 
